# In patent US5686466A, “Tricyclic condensed heterocyclic compounds their production and use” (priority 1993, dated 1997):
# Where a name gives a salt, the structure may show the parent alone.
# Target: T1, Acetylcholinesterase (Rattus norvegicus, UniProt P37136)
# T1 construct: Using the S1 fraction of a male Wistar rat cerebral cortex homogenate as a source of cholinesterase; from tissue; host or cells: male Wistar rat cerebral cortex homogenate, S1 fraction
# Experiment: cholinesterase inhibitory activity using (acetyl-[^3 H])-acetylcholine, S1 fraction of rat cerebral cortex homogenate
# Type: biochemical, male Wistar rat
# Settings: 30 min incubation
# Procedure: The cholinesterase inhibitory activity of the compound of the present invention was tested, using (acetyl-[^3 H])-acetylcholine. Using the S1 fraction of a male Wistar rat cerebral cortex homogenate as a source of cholinesterase, (acetyl-[^3 H])-acetylcholine, as a substrate, and the test compound, as a sample, were incubated for 30 minutes. After the reaction was terminated, a toluene scintillator was added and the reaction mixture was shaken to migrate the [^3 H]-acetic acid resulting from the reaction to the toluene layer, where radioactivity was counted using a liquid scintillation counter to determine the cholinesterase inhibitory activity.
# The sample's cholinesterase inhibitory activity was expressed by 50% inhibitory concentration (IC50).
# T1 sequence (P37136 32-614): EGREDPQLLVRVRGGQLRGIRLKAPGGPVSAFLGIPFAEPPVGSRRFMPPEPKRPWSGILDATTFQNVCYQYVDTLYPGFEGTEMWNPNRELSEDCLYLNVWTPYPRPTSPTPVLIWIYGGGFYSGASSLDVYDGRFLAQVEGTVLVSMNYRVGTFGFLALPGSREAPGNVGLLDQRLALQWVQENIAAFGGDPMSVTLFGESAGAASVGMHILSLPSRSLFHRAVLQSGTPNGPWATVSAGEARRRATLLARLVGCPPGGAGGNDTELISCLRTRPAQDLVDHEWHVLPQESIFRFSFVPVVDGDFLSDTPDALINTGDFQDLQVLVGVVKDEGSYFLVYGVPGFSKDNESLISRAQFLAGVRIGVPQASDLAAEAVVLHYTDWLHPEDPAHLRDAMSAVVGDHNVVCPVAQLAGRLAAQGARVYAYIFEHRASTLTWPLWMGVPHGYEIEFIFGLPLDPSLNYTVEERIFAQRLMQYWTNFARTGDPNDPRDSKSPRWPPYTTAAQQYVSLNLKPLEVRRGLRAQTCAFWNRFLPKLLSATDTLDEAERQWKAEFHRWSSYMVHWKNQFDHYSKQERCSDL
row,Structure (SMILES),IC50 [nM]
1,CN1CC2CCCc3c(C(=O)CCC4CCN(Cc5ccccc5)CC4)ccc1c32 (stereo not drawn) [16-1],154
2,O=C(CCN1CCN(Cc2ccccc2)CC1)c1cc2c3c(c1)CCN3C(=O)CC2 [17-1],3
3,O=C(CCN1CCN(Cc2ccccc2)CC1)c1cc2c3c(c1)CC(=O)N3CCC2 [17-2],7.6
4,O=C(CCN1CCN(Cc2ccccc2)CC1)c1cc2c3c(c1)CC(=O)N3CCCC2 [17-3],17.2
5,CC1CC(=O)N2CCc3cc(C(=O)CCN4CCN(Cc5ccccc5)CC4)cc1c32 (stereo not drawn) [17-4],9.5
6,O=C(CCN1CCN(Cc2ccccc2)CC1)c1cc2c3c(c1)CCC(=O)N3CCC2 [17-6],15.1
7,O=CN1Cc2cc(C(=O)CCN3CCN(Cc4ccccc4)CC3)ccc2Cc2ccccc21 [17-7],33
8,O=CN1Cc2cc(C(=O)CCN3CCN(Cc4ccccc4)CC3)ccc2Oc2ccccc21 [17-8],47
9,O=CN1Cc2cc(C(=O)CCN3CCN(Cc4ccccc4)CC3)ccc2CCc2ccccc21 [17-10],96.8
10,CCC(=O)N1CC2CCCc3c(C(=O)CCC4CCN(Cc5ccccc5)CC4)ccc1c32 (stereo not drawn) [20-1],182
11,O=C(CCN1CCN(Cc2ccccc2Cl)CC1)c1cc2c3c(c1)CC(=O)N3CCC2 [30-3],10.9
12,O=C(CCN1CCN(Cc2cccc(Cl)c2)CC1)c1cc2c3c(c1)CC(=O)N3CCC2 [30-4],43
13,O=C(CCN1CCN(Cc2ccccc2F)CC1)c1cc2c3c(c1)CC(=O)N3CCC2 [30-10],18.9
14,O=C(CCN1CCN(Cc2cccc(F)c2)CC1)c1cc2c3c(c1)CC(=O)N3CCC2 [30-11],16.9
15,O=C(CCN1CCN(Cc2ccc(F)cc2)CC1)c1cc2c3c(c1)CC(=O)N3CCC2 [30-12],23.9
16,COc1ccccc1CN1CCN(CCC(=O)c2cc3c4c(c2)CC(=O)N4CCC3)CC1 [30-13],130
17,O=C(CCN1CCN(Cc2ccccc2O)CC1)c1cc2c3c(c1)CC(=O)N3CCC2 [30-16],5.8
18,Cc1ccccc1CN1CCN(CCC(=O)c2cc3c4c(c2)CCN4C(=O)CC3)CC1 [30-18],24.9
19,O=C(CCN1CCN(Cc2ccccc2F)CC1)c1cc2c3c(c1)CCN3C(=O)CC2 [30-24],1.5
20,O=C(CCN1CCN(Cc2ccc(F)cc2)CC1)c1cc2c3c(c1)CCN3C(=O)CC2 [30-26],4.4
21,O=C(CCN1CCN(Cc2cccc([N+](=O)[O-])c2)CC1)c1cc2c3c(c1)CCN3C(=O)CC2 [30-29],29.3
22,COc1ccccc1CN1CCN(CCC(=O)c2cc3c4c(c2)CCN4C(=O)CC3)CC1 [30-32],91.1
23,O=C(CCC1CCN(Cc2ccccc2)CC1)c1cc2c3c(c1)CC(=O)N3CCC2 [30-34],0.5
24,O=C(CCN1CCN(Cc2cccc([N+](=O)[O-])c2)CC1)c1cc2c3c(c1)CC(=O)N3CCC2 [30-35],67.9
25,O=C(CCC1CCN(Cc2ccccc2)CC1)c1cc2c3c(c1)CCN3C(=O)CC2 [30-38],0.18
26,O=C(CCC1CCN(Cc2ccccc2F)CC1)c1cc2c3c(c1)CCN3C(=O)CC2 [30-39],0.5

row,Structure (SMILES),IC50 [nM]
1,O=C(CCC1CCN(Cc2cccc(F)c2)CC1)c1cc2c3c(c1)CCN3C(=O)CC2 [30-40],0.092
2,O=C(CCC1CCN(Cc2ccc(F)cc2)CC1)c1cc2c3c(c1)CCN3C(=O)CC2 [30-41],0.47
3,O=C(CCC1CCN(Cc2ccccc2Cl)CC1)c1cc2c3c(c1)CCN3C(=O)CC2 [30-42],0.54
4,O=C(CCC1CCN(Cc2cccc(Cl)c2)CC1)c1cc2c3c(c1)CCN3C(=O)CC2 [30-43],0.065
5,O=C(CCC1CCN(Cc2ccc(Cl)cc2)CC1)c1cc2c3c(c1)CCN3C(=O)CC2 [30-44],59.9
6,Cc1ccccc1CN1CCC(CCC(=O)c2cc3c4c(c2)CCN4C(=O)CC3)CC1 [30-45],0.304
7,Cc1cccc(CN2CCC(CCC(=O)c3cc4c5c(c3)CCN5C(=O)CC4)CC2)c1 [30-46],0.2
8,Cc1ccc(CN2CCC(CCC(=O)c3cc4c5c(c3)CCN5C(=O)CC4)CC2)cc1 [30-47],19.5
9,COc1ccccc1CN1CCC(CCC(=O)c2cc3c4c(c2)CCN4C(=O)CC3)CC1 [30-48],17.1
10,O=C(CCC1CCN(Cc2cccc([N+](=O)[O-])c2)CC1)c1cc2c3c(c1)CCN3C(=O)CC2 [30-52],0.36
11,O=C(CCC1CCN(Cc2ccc([N+](=O)[O-])cc2)CC1)c1cc2c3c(c1)CCN3C(=O)CC2 [30-53],25.4
12,Cc1ccc(CN2CCC(CCC(=O)c3cc4c5c(c3)CCN5C(=O)CC4)CC2)c(C)c1 [30-54],60.9
13,Cc1ccc(C)c(CN2CCC(CCC(=O)c3cc4c5c(c3)CCN5C(=O)CC4)CC2)c1 [30-56],18.3
14,O=C(CCC1CCN(Cc2ccccc2O)CC1)c1cc2c3c(c1)CCN3C(=O)CC2 [30-58],0.12
15,O=C(CCC1CCN(Cc2cccc(O)c2)CC1)c1cc2c3c(c1)CCN3C(=O)CC2 [30-59],1.12
16,O=C(CCC1CCN(Cc2ccc(O)cc2)CC1)c1cc2c3c(c1)CCN3C(=O)CC2 [30-60],0.078
17,N#Cc1ccccc1CN1CCC(CCC(=O)c2cc3c4c(c2)CCN4C(=O)CC3)CC1 [30-61],15.6
18,O=C(CCN1CCN(Cc2ccccc2)CC1)c1ccc2c(c1)CNc1ccccc1C2 [32-2],115
19,O=C(CCN1CCN(Cc2ccccc2)CC1)c1ccc2c(c1)CNc1ccccc1O2 [32-3],59
20,O=C(CCN1CCN(Cc2ccccc2)CC1)c1ccc2c(c1)CN(Cc1ccccc1)Cc1ccccc1-2 [34-1],39.3
21,COc1ccc(CN2Cc3ccccc3-c3ccc(C(=O)CCN4CCN(Cc5ccccc5)CC4)cc3C2)cc1 [34-2],20
22,CC(=O)N1Cc2ccccc2-c2ccc(C(=O)CCN3CCN(Cc4ccccc4)CC3)cc2C1 [34-3],171
23,COc1ccc(C(=O)N2Cc3ccccc3-c3ccc(C(=O)CCN4CCN(Cc5ccccc5)CC4)cc3C2)cc1 [34-5],31.6
24,O=C(CCC1CCN(Cc2ccccc2)CC1)c1ccc2c3c(cccc13)CN(Cc1ccccc1)C2 [37-2],184
25,CN1c2ccc(C(=O)CCC3CCN(Cc4ccccc4)CC3)cc2C2CCCCC21 (stereo not drawn) [37-4],136

# Tested on: [^3 H]-norepinephirine(NE) uptake
# Experiment: monoamine uptake inhibition, [^3 H]-norepinephirine (NE), crude synaptosomal preparations of cerebral cortex and hippocampus
# Type: biochemical
# Settings: [^3 H]-NE 11 nM; 37° C; rat synaptosomes; read-out: Monoamine Reuptake Inhibitory Activity IC50, NE
# Procedure: (§1) Effects of the compound of this invention on monoamine uptake were investigated using [^3 H]-norepinephirine(NE) and [3H]-serotonin (5-HT). Rats were sacrificed by decapitation. The cerebral cortex and hippocampus were removed and homogenized in 10-15 volumes (W/V) of an ice-cold medium containing 0.32M sucrose. Crude synaptosomal preparations (P2) were isolated after differential centrifugation at 1000×g for 10 min and 20,000×g for 30 min at 4° C. Synaptosomal membranes were suspended in Krebs-Ringer bicarbonate (KRB) solution (116 mM NaCl, 4.8 mM KCl, 1.3 mM CaCl2, 1.2 mM MgSO4, 1.2 mM NaH2 PO4, 25 mM NaHCO3, 0.1 mM EDTA-2Na, 11.1 mM D-glucose, 0.11 mM L-ascorbic acid, 0.01 mM pargyline). Synaptosomal membrane suspension (900 μl) was preincubated with the test compound dissolved in DMSO solution at 37° C. for 5 min. The reaction was initiated by addition of 100 μl of [^3 H]-NE (11 nM in final concentration) or [^3 H]-HT (10 nM in final concentration). Five minutes later, the reaction was stopped by the addition of 4 ml of ice-cold KRB and the reaction mixture was filtered through Whatman CF/B. Filters were washed twice with 4 ml of KRB and the radioactivity bound was counted with liquid scintillant. Imipramine was used as positive control.
row,Structure (SMILES),IC50 [nM]
1,O=C(CCN1CCN(Cc2ccccc2)CC1)c1ccc2c(c1)C1CCCCC1N2 (stereo not drawn) [19-1],328
2,CCc1ccccc1CN1CCN(CCC(=O)c2cc3c4c(c2)CC(=O)N4CCC3)CC1 [30-6],5960
3,Cc1ccc(CN2CCN(CCC(=O)c3cc4c5c(c3)CC(=O)N5CCC4)CC2)cc1C [30-8],643
4,Cc1ccc(CN2CCN(CCC(=O)c3cc4c5c(c3)CCN5C(=O)CC4)CC2)cc1C [30-28],2810
5,O=C(CCN1CCN(Cc2ccc([N+](=O)[O-])cc2)CC1)c1cc2c3c(c1)CC(=O)N3CCC2 [30-36],7480
6,O=C(CCN1CCN(Cc2ccc3c(c2)OCO3)CC1)c1cc2c3c(c1)CC(=O)N3CCC2 [31-1],6180
7,O=C(CCN1CCC(Cc2ccccc2)CC1)c1cc2c3c(c1)CC(=O)N3CCC2 [31-2],73.8
8,O=CN1Cc2ccccc2-c2ccc(C(=O)CCN3CCC(Cc4ccccc4)CC3)cc2C1 [31-11],515
9,O=C(CCN1CCN(Cc2ccccc2)CC1)c1ccc2c(c1)CN(C(=O)c1ccccc1)Cc1ccccc1-2 [34-4],456
10,O=C(CCN1CCC(Cc2ccccc2)CC1)c1ccc2c(c1)CN(C(=O)c1ccccc1)Cc1ccccc1-2 [34-8],197
11,"CN(C)CCCN1c2ccccc2CCc2ccccc21 [Imipramine, reference compound]",1120
12,"O=C(CCN1CCN(Cc2ccccc2)CC1)c1ccc2c3c1CCCC3CN2 (stereo not drawn) [compound 2, 1-(1,2,2a,3,4,5-Hexahydrobenz[cd]indol-6-yl)-3-[1-(phenylmethyl)piperazin-4-yl]-1-propanone trihydrochloride]",420

# Tested on: [3H]-serotonin (5-HT) uptake
# Experiment: monoamine uptake inhibition, [3H]-serotonin (5-HT), crude synaptosomal preparations of cerebral cortex and hippocampus
# Type: biochemical
# Settings: [^3 H]-HT 10 nM; 37° C; rat synaptosomes; read-out: Monoamine Reuptake Inhibitory Activity IC50, 5-HT
# Procedure: as §1
row,Structure (SMILES),IC50 [nM]
1,O=C(CCN1CCN(Cc2ccccc2)CC1)c1ccc2c(c1)C1CCCCC1N2 (stereo not drawn) [19-1],1670
2,CCc1ccccc1CN1CCN(CCC(=O)c2cc3c4c(c2)CC(=O)N4CCC3)CC1 [30-6],86.3
3,Cc1ccc(CN2CCN(CCC(=O)c3cc4c5c(c3)CC(=O)N5CCC4)CC2)cc1C [30-8],60.7
4,Cc1ccc(CN2CCN(CCC(=O)c3cc4c5c(c3)CCN5C(=O)CC4)CC2)cc1C [30-28],61.5
5,O=C(CCN1CCN(Cc2ccc([N+](=O)[O-])cc2)CC1)c1cc2c3c(c1)CC(=O)N3CCC2 [30-36],46.8
6,O=C(CCN1CCN(Cc2ccc3c(c2)OCO3)CC1)c1cc2c3c(c1)CC(=O)N3CCC2 [31-1],46.3
7,O=C(CCN1CCC(Cc2ccccc2)CC1)c1cc2c3c(c1)CC(=O)N3CCC2 [31-2],8.79
8,O=CN1Cc2ccccc2-c2ccc(C(=O)CCN3CCC(Cc4ccccc4)CC3)cc2C1 [31-11],69.5
9,O=C(CCN1CCN(Cc2ccccc2)CC1)c1ccc2c(c1)CN(C(=O)c1ccccc1)Cc1ccccc1-2 [34-4],969
10,O=C(CCN1CCC(Cc2ccccc2)CC1)c1ccc2c(c1)CN(C(=O)c1ccccc1)Cc1ccccc1-2 [34-8],363
11,"CN(C)CCCN1c2ccccc2CCc2ccccc21 [Imipramine, reference compound]",63
12,"O=C(CCN1CCN(Cc2ccccc2)CC1)c1ccc2c3c1CCCC3CN2 (stereo not drawn) [compound 2, 1-(1,2,2a,3,4,5-Hexahydrobenz[cd]indol-6-yl)-3-[1-(phenylmethyl)piperazin-4-yl]-1-propanone trihydrochloride]",594
